From paper PMC11869428 (Microbial Cell Factories, 2025)

Target: T1, GenP (Micromonospora echinospora, UniProt A0A1C4WLH3)
T1 sequence (A0A1C4WLH3 1-268): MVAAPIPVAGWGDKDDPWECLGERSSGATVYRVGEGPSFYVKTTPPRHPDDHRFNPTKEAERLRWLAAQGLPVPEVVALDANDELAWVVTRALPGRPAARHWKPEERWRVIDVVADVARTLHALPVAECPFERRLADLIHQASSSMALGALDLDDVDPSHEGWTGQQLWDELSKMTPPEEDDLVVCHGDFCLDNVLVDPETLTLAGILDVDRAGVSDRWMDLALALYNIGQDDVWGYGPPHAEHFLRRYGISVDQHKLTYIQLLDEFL
Test: preparative phosphorylation, HPLC-ELSD
Type: biochemical
Details: ATP […], MgCl2 […], Tris […] pH […] °C, […] h

CN[C@@H]1[C@@H](O)[C@@H](O[C@@H]2[C@@H](O)[C@H](O[C@H]3O[C@H](CN)[C@@H](O)[C@H](O)[C@H]3N)[C@@H](N)C[C@H]2N)OC[C@]1(C)O [JI-20A]
preparative phosphorylation, HPLC-ELSD: JI-20A-P, JI-20Ba-P, and JI-20B-P were obtained through the catalysis of GenP
